Results as given in patent publication US9605029B2, “Antibody-binding peptide” (NATIONAL INSTITUTE OF ADVANCED INDUSTRIAL SCIENCE AND …, priority 2013, dated 2017).

Test system: Fc region (Jackson ImmunoResearch Laboratories, Inc.) labeled with horseradish peroxidase (HRP)
Assay: ELISA of recombinant phages displaying polypeptides (Example 2, 6)
Type: binding, human
Conditions: recombinant T7 phage displaying the polypeptide; absorbance at 415 nm; control 0.11
Experimental: 6) In this section, it will be stated as an example that the binding activity of recombinant phages transformed by nucleic acids encoding amino acid sequences represented by SEQ ID NOs: 26, 27, 30 to 55, 57, 63 to 72 and 79 to 81 was measured by Enzyme Linked Immuno-Sorbent Assay (ELISA).
DNA molecules encoding amino acid sequences of SEQ ID NOs: 26, 27, 30 to 55, 57, 63 to 72 and 79 to 81 were amplified by a polymerase chain reaction (PCR) using KOD DNA polymerase (TOYOBO) under the reaction conditions according to the accompanying manual. Each of the amplified DNA was digested with restriction enzymes EcoRI and HindIII, and ligated to the 3′ terminal of g10 gene on T7 phage genomic DNA. Ligation to T7 phage genomic DNA was performed by use of a sample attached to T7Select10-3 Cloning Kit (Novagen) under the reaction conditions and in accordance with the procedure described in T7Select (registered trade mark) System Manual. Using T7 phage genomic DNA ligated, T7 phage was packaged in a test tube by T7Select Packaging Kit (Novagen) under the reaction conditions in accordance with T7Select (registered trade mark) System Manual (Novagen). Subsequently, phage plaque was formed in accordance with T7Select (registered trade mark) System Manual (Novagen). From each of the plaques, a recombinant phage displaying the polypeptide was isolated. To MICROTEST (registered trade mark) 96 (BECTON, DICKINSON AND COMPANY), a culture solution (0.2 mL) of Escherichia coli BL5403 strain cultured in LB medium until O.D.600 reached 1.0 was poured to infect with the Escherichia coli cells each of the recombinant phages isolated from plaques and allowed to stand still 37° C. for 12 hours to proliferate phages. The culture solution (10 μL) containing these phages was diluted in 90 μL of TBS buffer (50 mM Tris-HCl, 150 mM NaCl, pH 7.4) to prepare measurement samples.
The measurement samples were poured to MEDISORP 96 well microplate (Nunc) and allowed to stand still for one hour to allow the phage to physically adsorb to the plate. The supernatant was removed and SuperBlock (registered trade mark) T20 (TBS) Blocking Buffer (Thermo […]) (150 μL) was poured to the plate and allowed to stand still for one hour to block the surface of the plate. The plate was washed three times with TBS-T buffer (50 mM Tris-HCl, 150 mM NaCl, 0.1% Tween 20 (registered trade mark), pH 7.4). To the plate, TBS-T buffer (100 μL) containing an Fc region (Jackson ImmunoResearch Laboratories, Inc.) (0.2 μg/mL) labeled with horseradish peroxidase (HRP) was added and allowed to stand still for one hour. After the plate was washed three times with TBS-T buffer, ABTS One Component HRP Microwell Substrate (BioFX) (100 μL) was poured to the plate. The binding activity was detected through a […]. The absorbance at 415 nm (O.D.415) was measured by a microplate absorbance reader Sunrise R (TECAN GROUP LTD.). TBS-T buffer containing no phages was used as a negative control in a control experiment.
ELISA results of the recombinant phages displaying polypeptides containing amino acid sequences represented by SEQ ID NOs: 26, 27 and 30 to 55 and the recombinant phages displaying polypeptides containing amino acid sequences represented by SEQ ID NOs: 57, 63 to 72 and 79 to 81 are shown in Table 5A and Table 5B, respectively.

Row | Substance | O.D. 415
1 | 26 (DAAWHLGELVWATYYDPETGTWLPDWQTMAQK; IgG binding peptide, pep21) [compound 26] | 0.43
2 | 27 (DAAWHLGELVWATYYDPETGTWEPDWQRMLGQ; IgG binding peptide, pep24) [compound 27] | 0.289
3 | 30 (DAAWHLGELVWATYYDPETGTWEPDWKLMQRP; IgG binding peptide, pep7) [compound 30] | 0.287
4 | 31 (DAAWHLGELVWATYYDPETGTWQPDWDIMAGH; IgG binding peptide, pep25) [compound 31] | 0.295
5 | 32 (DAAWHLGELVWATYYDPETGTWLPDWDVMVRQ; IgG binding peptide, pep27) [compound 32] | 0.352
6 | 33 (DAAWHLGELVWATYYDPETGTWVPDWERMKQH; IgG binding peptide, pep31) [compound 33] | 0.305
7 | 34 (DAAWHLGELVWATYYDPETGTWEPDWSKMRPQ; IgG binding peptide, pep1) [compound 34] | 0.281
8 | 35 (DAAWHLGELVWATYYDPETGTWRPDWAVMATP; IgG binding peptide, pep2) [compound 35] | 0.32
9 | 36 (DAAWHLGELVWATYYDPETGTWKPDWRMMGVP; IgG binding peptide, pep3) [compound 36] | 0.287
10 | 37 (DAAWHLGELVWATYYDPETGTWLPDWDYMSSK; IgG binding peptide, pep4) [compound 37] | 0.235
11 | 38 (DAAWHLGELVWATYYDPETGTWMPDWDRMLRR; IgG binding peptide, pep5) [compound 38] | 0.29
12 | 39 (DAAWHLGELVWATYYDPETGTWTPDWNAMSQR; IgG binding peptide, pep6) [compound 39] | 0.273
13 | 40 (DAAWHLGELVWATYYDPETGTWQPDWKRMTSR; IgG binding peptide, pep10) [compound 40] | 0.251
14 | 41 (DAAWHLGELVWATYYDPETGTWQPDWGRMNSK; IgG binding peptide, pep12) [compound 41] | 0.274
15 | 42 (DAAWHLGELVWATYYDPETGTWAPDWNRMRDFNRSFREV; IgG binding peptide, pep29) [compound 42] | 0.273
16 | 43 (DAAWHLGELVWATYYDPETGTWVPDWDAMSSR; IgG binding peptide, pep15) [compound 43] | 0.813
17 | 44 (DAAWHLGELVWATYYDPETGTWIPDWTRMQTW; IgG binding peptide, pep16) [compound 44] | 0.243
18 | 45 (DAAWHLGELVWATYYDPETGTWKPDWQRMKLH; IgG binding peptide, pep17) [compound 45] | 0.249
19 | 46 (DAAWHLGELVWATYYDPETGTWLPDWSQMRPQ; IgG binding peptide, pep18) [compound 46] | 0.243
20 | 47 (DAAWHLGELVWATYYDPETGTWLPDWDTMTPR; IgG binding peptide, pep19) [compound 47] | 0.255
21 | 48 (DAAWHLGELVWATYYDPETGTWQPDWSVMKSL; IgG binding peptide, pep20) [compound 48] | 0.373
22 | 49 (DAAWHLGELVWATYYDPETGTWVPDWDTMHAAINRSFREV; Artificial Sequence, pep22; IgG binding peptide) [compound 49] | 0.346
23 | 50 (DAAWHLGELVWATYYDPETGTWIPDWRAMSQF; IgG binding peptide, pep23) [compound 50] | 0.244
24 | 51 (DAAWHLGELVWATYYDPETGTWLPDWNLMGQH; IgG binding peptide, pep26) [compound 51] | 0.265
25 | 52 (DAAWHLGELVWATYYDPETGTWRPDWARMEPM; IgG binding peptide, pep28) [compound 52] | 0.25
26 | 53 (DAAWHLGELVWATYYDPETGTWKPDWQVMSPVSNRSFREV; IgG binding peptide, pep29) [compound 53] | 0.279
27 | 54 (DAAWHLGELVWATYYDPETGTWQPDWEIMRPF; IgG binding peptide, pep30) [compound 54] | 0.258
